According to the supplement of paper PMC13380429:

Key:
Details in all cases: 72 h
[1] = test system: U2OS; assay: cell viability relative to DMSO; higher = less toxic
[2] = test system: HepG2; assay: as above
[3] = test system: Vero E6; assay: as above
[4] = test system: Caco-2; assay: as above
[5] = test system: Calu-3; assay: as above
[6] = test system: U2OS; assay: drug sensitivity score (DSS) for viability; higher = more toxic; extreme values may be limits of the assay
[7] = test system: HepG2; assay: as above
[8] = test system: Vero E6; assay: as above
[9] = test system: Caco-2; assay: as above
[10] = test system: Calu-3; assay: as above
[11] = test system: U2OS; assay: relative viability EC50 (midpoint between 100% and the lowest measured viability); higher = less toxic
[12] = test system: HepG2; assay: as above
[13] = test system: Vero E6; assay: as above
[14] = test system: Caco-2; assay: as above
[15] = test system: Calu-3; assay: as above

SMILES | cell viability ([1]; 1 nM) | cell viability ([1]; 10 nM) | cell viability ([1]; 100 nM) | cell viability ([1]; 1000 nM) | cell viability ([1]; 10000 nM) | cell viability ([2]; 1 nM) | cell viability ([2]; 10 nM) | cell viability ([2]; 100 nM) | cell viability ([2]; 1000 nM) | cell viability ([2]; 10000 nM) | cell viability ([3]; 1 nM) | cell viability ([3]; 10 nM) | cell viability ([3]; 100 nM) | cell viability ([3]; 1000 nM) | cell viability ([3]; 10000 nM) | cell viability ([4]; 1 nM) | cell viability ([4]; 10 nM) | cell viability ([4]; 100 nM) | cell viability ([4]; 1000 nM) | cell viability ([4]; 10000 nM) | cell viability ([5]; 1 nM) | cell viability ([5]; 10 nM) | cell viability ([5]; 100 nM) | cell viability ([5]; 1000 nM) | cell viability ([5]; 10000 nM) | drug sensitivity score [6] | drug sensitivity score [7] | drug sensitivity score [8] | drug sensitivity score [9] | drug sensitivity score [10] | relative viability EC50 [11] | relative viability EC50 [12] | relative viability EC50 [13] | relative viability EC50 [14] | relative viability EC50 [15]
Cc1ccc(/N=C/N(C)/C=N/c2ccc(C)cc2C)c(C)c1 [amitraz] | 101% | 99.2% | 94.6% | 95.5% | 87.8% | 96% | 81.2% | 103% | 87.4% | 92.2% | 94.8% | 103% | 95.8% | 95.6% | 104% | 94.1% | 99.5% | 91.8% | 104% | 88.1% | 95.1% | 104% | 98.1% | 105% | 96.1% | 0 | 0 | 0 | 0 | 0 | > 10 µM | > 10 µM | > 10 µM | > 10 µM | > 10 µM
Cn1c(=O)c2c(ncn2CC(=O)Nc2ccc(-c3ccccc3)nn2)n(C)c1=O [ETC-159] | 95.1% | 96.7% | 93.4% | 99.2% | 98.5% | 94% | 89.4% | 106% | 87.4% | 79.2% | 97.1% | 97.8% | 93.7% | 89.4% | 94.7% | 91.7% | 91.3% | 98.3% | 93.5% | 79.9% | 98.1% | 94% | 103% | 113% | 110% | 0 | 1.9 | 0 | 0.5 | 0 | > 10 µM | > 10 µM | > 10 µM | > 10 µM | > 10 µM
O=c1n(CCCN2CCN(c3cccc(Cl)c3)CC2)nc2ccccn12 [trazodone] | 102% | 104% | 98.5% | 97.2% | 98.3% | 95.8% | 99% | 94.1% | 108% | 91% | 98.8% | 101% | 95.6% | 103% | 101% | 99.5% | 98.2% | 97.5% | 89.6% | 96.4% | 105% | 92.4% | 95.1% | 79.7% | 99.3% | 0 | 0 | 0 | 0 | 0 | > 10 µM | > 10 µM | > 10 µM | > 10 µM | > 10 µM
